According to ChEMBL document CHEMBL4138232, “O2-(2,4-dinitrophenyl)diazeniumdiolates derivatives: Design, synthesis, cytotoxic evaluation and reversing MDR in MCF-7/ADR cells” (Eur J Med Chem, 2018):

Assays:
HCT-116 [1] = assay: Cytotoxicity against human HCT116 cells overexpressing GST-Pi assessed as inhibition of cell viability at 10 uM after 48 hrs by MTT assay relative to control; type: functional; details: HCT-116, 48 h
MCF7 = assay: Cytotoxicity against ADR-sensitive human MCF7 cells assessed as inhibition of cell viability after 48 hrs by MTT assay; type: cell-based; details: MCF7, 48 h
[2] = Cytotoxicity against ADR-sensitive human MCF7 cells assessed as inhibition of cell viability at 10 uM after 48 hrs by MTT assay relative to control; type: cell-based; details: read-out: INH
Homo sapiens = species on record: Homo sapiens; assay: Inhibition of MDR in human MCF7/ADR cells assessed as potentiation of adriamycin-induced antiproliferative activity by measuring fold reduction in adriamycin IC50 at 10 uM after 48 hrs by MTT assay; type: cell-based
U2OS = assay: Antiproliferative activity against human U2OS cells after 48 hrs by MTT assay relative to control; type: functional, cell-based
[3] = Selectivity ratio of IC50 for human HCT116 cells to IC50 for human MDA-MB-231 cells; type: functional
[4] = Selectivity ratio of IC50 for human A549 cells to IC50 for human MDA-MB-231 cells; type: functional
HCT-116 [5] = assay: Antiproliferative activity against human HCT116 cells after 48 hrs by MTT assay relative to control; type: functional, cell-based; details: HCT-116, 48 h
MDA-MB-231 = assay: Antiproliferative activity against human MDA-MB-231 cells after 48 hrs by MTT assay relative to control; type: functional, cell-based; details: MDA-MB-231, 48 h
[6] = Selectivity ratio of IC50 for human MCF10A cells to IC50 for human MDA-MB-231 cells; type: toxicity; details: MCF10A cells versus MDA-MB-231 cells, read-out: Ratio IC50
A549 = assay: Antiproliferative activity against human A549 cells after 48 hrs by MTT assay relative to control; type: functional, cell-based; details: A549, 48 h
[7] = Selectivity ratio of IC50 for human U2OS cells to IC50 for human MDA-MB-231 cells; type: functional
MCF-10A = assay: Antiproliferative activity against human MCF10A cells after 48 hrs by MTT assay relative to control; type: cell-based
[8] = target: T1, Glutathione S-transferase P (Homo sapiens, UniProt P09211); assay: Prodrug activation in human HCT116 cells assessed as GST-Pi-mediated NO release at 5 uM after 24 hrs in presence of GST-Pi inhibitor etacrynic acid by nitrate reductase assay; type: cell-based
T1 sequence (P09211 whole entry): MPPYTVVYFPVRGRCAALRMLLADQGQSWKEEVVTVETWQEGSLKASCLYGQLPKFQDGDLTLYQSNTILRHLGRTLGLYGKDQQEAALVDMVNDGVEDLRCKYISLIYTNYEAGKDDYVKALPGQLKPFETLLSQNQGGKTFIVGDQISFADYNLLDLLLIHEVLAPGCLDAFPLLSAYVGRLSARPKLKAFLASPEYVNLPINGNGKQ

[9] = target: T1, Glutathione S-transferase P; assay: Prodrug activation in human HCT116 cells assessed as GST-Pi-mediated NO release at 5 uM after 24 hrs in presence of NO scavenger carboxy-PTIO by nitrate reductase assay; type: cell-based
[10] = target: T1, Glutathione S-transferase P; assay: Prodrug activation in human HCT116 cells assessed as GST-Pi-mediated NO release at 5 uM after 24 hrs by nitrate reductase assay; type: cell-based

| Structure (SMILES) | inhibition at 10 µM (HCT-116 [1]) [%] | IC50 (MCF7) [µM] | cytotoxicity at 48 h, 10 µM [2] [%] | fold change (FC) (Homo sapiens) | IC50 (U2OS) [µM] | Ratio IC50 [3] | Ratio IC50 [4] | IC50 (HCT-116 [5]) [µM] | IC50 (MDA-MB-231) [µM] | selectivity ratio [6] | IC50 (A549) [µM] | Ratio IC50 [7] | IC50 (MCF-10A) [µM] | Drug metabolism [8] | Drug metabolism [9] | Drug metabolism [10] |
| --- | --- | --- | --- | --- | --- | --- | --- | --- | --- | --- | --- | --- | --- | --- | --- | --- |
| CCCCCOc1ccc(C2CC(c3cccc(Oc4cc(O/N=[N+](\[O-])N5CCOCC5)c([N+](=O)[O-])cc4[N+](=O)[O-])c3)=NN2C(C)=O)cc1OC (stereo not given) | 68.3 | 35.8 | 21.7 | 16.8 |  |  |  |  |  |  |  |  |  |  |  |  |
| CCCCCCOc1ccc(C2CC(c3cccc(Oc4cc(O/N=[N+](\[O-])N5CCOCC5)c([N+](=O)[O-])cc4[N+](=O)[O-])c3)=NN2C(C)=O)cc1OC (stereo not given) | 66.7 |  |  |  |  |  |  |  |  |  |  |  |  |  |  |  |
| CCCCCCOc1ccc(/C=C/C(=O)c2cccc(Oc3cc(O/N=[N+](\[O-])N4CCCCC4)c([N+](=O)[O-])cc3[N+](=O)[O-])c2)cc1OC | 16.1 |  |  |  |  |  |  |  |  |  |  |  |  |  |  |  |
| CCCCOc1ccc(/C=C/C(=O)c2cccc(Oc3cc(O/N=[N+](\[O-])N4CCCCC4)c([N+](=O)[O-])cc3[N+](=O)[O-])c2)cc1OC | 58.6 |  |  |  |  |  |  |  |  |  |  |  |  |  |  |  |
| COc1ccc(/C=C/C(=O)c2cccc(Oc3cc(O/N=[N+](\[O-])N4CCOCC4)c([N+](=O)[O-])cc3[N+](=O)[O-])c2)cc1 | 68.7 | 29.9 | 5.4 | 64.2 | 5.19 | 0.9 | 1.1 | 4.91 | 5.34 | 3.1 | 5.9 | 1 | 16.6 |  |  |  |
| COc1ccc(CCN(C)CCCC(C#N)(c2ccc(OC)c(OC)c2)C(C)C)cc1OC (stereo not given) |  |  |  | 29.8 |  |  |  |  |  |  |  |  |  |  |  |  |
| Cc1ccc(/C=C/C(=O)c2cccc(Oc3cc(O/N=[N+](\[O-])N4CCOCC4)c([N+](=O)[O-])cc3[N+](=O)[O-])c2)cc1 | 61.2 | 18.8 | 21.3 | 46.9 | 5.26 | 2 | 1.5 | 4.08 | 2.03 | 22 | 3.15 | 2.6 | 44.7 | Metabolite_Notdetected | Metabolite_Notdetected |  |
| Cc1ccc(/C=C/C(=O)c2cccc(Oc3cc(O/N=[N+](\[O-])N4CCCCC4)c([N+](=O)[O-])cc3[N+](=O)[O-])c2)cc1 | 62.2 | 59.1 | 14.2 | 51.2 | 5.22 | 1.7 | 1.5 | 6.31 | 3.74 | 34.2 | 5.66 | 1.4 | 128 |  |  |  |
| CCCCCCOc1ccc(/C=C/C(=O)c2cccc(Oc3cc(O/N=[N+](\[O-])N4CCOCC4)c([N+](=O)[O-])cc3[N+](=O)[O-])c2)cc1OC | 52.4 |  |  |  |  |  |  |  |  |  |  |  |  |  |  |  |
| CN(C)c1ccc(/C=C/C(=O)c2cccc(Oc3cc(O/N=[N+](\[O-])N4CCCCC4)c([N+](=O)[O-])cc3[N+](=O)[O-])c2)cc1 | 65.9 |  |  |  |  |  |  |  |  |  |  |  |  |  |  |  |
| CCCCOc1ccc(/C=C/C(=O)c2cccc(Oc3cc(O/N=[N+](\[O-])N4CCOCC4)c([N+](=O)[O-])cc3[N+](=O)[O-])c2)cc1OC | 70.2 |  |  |  |  |  |  |  |  |  |  |  |  |  |  |  |
| CCCCCOc1ccc(/C=C/C(=O)c2cccc(Oc3cc(O/N=[N+](\[O-])N4CCOCC4)c([N+](=O)[O-])cc3[N+](=O)[O-])c2)cc1OC | 66.6 |  |  |  |  |  |  |  |  |  |  |  |  |  |  |  |
| COc1ccc(/C=C/C(=O)c2cccc(Oc3cc(O/N=[N+](\[O-])N4CCCCC4)c([N+](=O)[O-])cc3[N+](=O)[O-])c2)cc1 | 69.5 | 71 | 11.2 | 1.53 | 9.78 | 0.9 | 1.4 | 5.37 | 6.15 | 18.3 | 8.58 | 1.6 | 113 |  |  |  |
| COc1ccc(/C=C/C(=O)c2cccc(Oc3cc(O/N=[N+](\[O-])N4CCCCC4)c([N+](=O)[O-])cc3[N+](=O)[O-])c2)cc1OC | 66.1 | 32.7 | 8.24 | 10.2 | 11.4 | 0.8 | 0.9 | 8.88 | 11.1 | 8.6 | 9.63 | 1 | 95.9 |  |  |  |
| CCCCCOc1ccc(/C=C/C(=O)c2cccc(Oc3cc(O/N=[N+](\[O-])N4CCCCC4)c([N+](=O)[O-])cc3[N+](=O)[O-])c2)cc1OC | 33 |  |  |  |  |  |  |  |  |  |  |  |  |  |  |  |
| CCCCCOc1ccc(C2CC(c3cccc(Oc4cc(O/N=[N+](\[O-])N5CCCCC5)c([N+](=O)[O-])cc4[N+](=O)[O-])c3)=NN2C(C)=O)cc1OC (stereo not given) | 63.7 |  |  |  |  |  |  |  |  |  |  |  |  |  |  |  |
| CCCCOc1ccc(C2CC(c3cccc(Oc4cc(O/N=[N+](\[O-])N5CCCCC5)c([N+](=O)[O-])cc4[N+](=O)[O-])c3)=NN2C(C)=O)cc1OC (stereo not given) | 72.9 |  |  |  | 3.55 | 2.4 | 2.1 | 7.78 | 3.27 | 24.4 | 6.94 | 1.1 | 79.7 |  |  |  |
| CCOC(=O)N1CCN(/[N+]([O-])=N/Oc2ccc([N+](=O)[O-])cc2[N+](=O)[O-])CC1 | 78 |  |  |  | 6.27 |  |  | 4.86 | 5.75 |  | 6.53 |  | 4.91 | Metabolite_Notdetected | Metabolite_Notdetected | Metabolite_Detected |
| COc1cc(/C=C/C(=O)c2cccc(Oc3cc(O/N=[N+](\[O-])N4CCCCC4)c([N+](=O)[O-])cc3[N+](=O)[O-])c2)cc(OC)c1OC | 63.7 | 30.4 | 19.2 | 42.5 | 4.65 | 1.5 | 1.4 | 5.29 | 3.42 | 23.6 | 4.65 | 1.4 | 80.8 |  |  |  |
| CCCCCCOc1ccc(C2CC(c3cccc(Oc4cc(O/N=[N+](\[O-])N5CCCCC5)c([N+](=O)[O-])cc4[N+](=O)[O-])c3)=NN2C(C)=O)cc1OC (stereo not given) | 48 |  |  |  |  |  |  |  |  |  |  |  |  |  |  |  |
| COc1cc(/C=C/C(=O)c2cccc(Oc3cc(O/N=[N+](\[O-])N4CCOCC4)c([N+](=O)[O-])cc3[N+](=O)[O-])c2)cc(OC)c1OC | 77.6 | 20.9 | 21.5 | 72.3 | 5.17 | 2.4 | 1.7 | 2.92 | 1.18 | 11.7 | 1.96 | 4.4 | 13.8 | Metabolite_Notdetected | Metabolite_Notdetected |  |
| CN(C)c1ccc(/C=C/C(=O)c2cccc(Oc3cc(O/N=[N+](\[O-])N4CCOCC4)c([N+](=O)[O-])cc3[N+](=O)[O-])c2)cc1 | 57.1 |  |  |  |  |  |  |  |  |  |  |  |  |  |  |  |
